Experimental data from ChEMBL document CHEMBL1130196, “Selective, orally active 5-HT1D receptor agonists as potential antimigraine agents” (J Med Chem, 1997).

Assays:
[1] = target: T1, 5-hydroxytryptamine receptor 1B (Homo sapiens, UniProt P28222); test: Displacement of [3H]5-HT from human 5-hydroxytryptamine 1B receptor expressed in CHO cells; format: cell-based
[2] = target: T2, 5-hydroxytryptamine receptor 1D (Homo sapiens, UniProt P28221); test: Displacement of [3H]5-HT from human 5-hydroxytryptamine 1D receptor expressed in CHO cells; format: cell-based
T2 sequence (P28221 whole entry): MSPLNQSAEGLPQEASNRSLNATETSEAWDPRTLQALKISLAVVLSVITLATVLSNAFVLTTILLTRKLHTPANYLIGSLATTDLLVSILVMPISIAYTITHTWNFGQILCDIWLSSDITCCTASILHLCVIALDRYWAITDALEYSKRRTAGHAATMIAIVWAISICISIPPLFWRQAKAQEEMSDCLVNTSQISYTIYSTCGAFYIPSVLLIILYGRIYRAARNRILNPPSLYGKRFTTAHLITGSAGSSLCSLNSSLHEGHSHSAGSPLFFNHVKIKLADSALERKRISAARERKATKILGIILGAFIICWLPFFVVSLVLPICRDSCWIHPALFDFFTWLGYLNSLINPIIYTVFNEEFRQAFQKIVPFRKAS

[3] = target: T2, 5-hydroxytryptamine receptor 1D; test: Stimulation of [35S]GTP-gamma-S, binding in CHO cells expressing 5-hydroxytryptamine 1D receptor; format: functional, cell-based
[4] = target: T2, 5-hydroxytryptamine receptor 1D; test: Maximum stimulation of [35S]GTP-gamma-S, binding to 5-hydroxytryptamine 1D receptor relative to 5-HT; format: functional
[5] = target: T3, 5-hydroxytryptamine receptor 2C (Homo sapiens, UniProt P28335); test: Compound was evaluated for the affinity at 5-hydroxytryptamine 2C receptor
T3 sequence (P28335 whole entry): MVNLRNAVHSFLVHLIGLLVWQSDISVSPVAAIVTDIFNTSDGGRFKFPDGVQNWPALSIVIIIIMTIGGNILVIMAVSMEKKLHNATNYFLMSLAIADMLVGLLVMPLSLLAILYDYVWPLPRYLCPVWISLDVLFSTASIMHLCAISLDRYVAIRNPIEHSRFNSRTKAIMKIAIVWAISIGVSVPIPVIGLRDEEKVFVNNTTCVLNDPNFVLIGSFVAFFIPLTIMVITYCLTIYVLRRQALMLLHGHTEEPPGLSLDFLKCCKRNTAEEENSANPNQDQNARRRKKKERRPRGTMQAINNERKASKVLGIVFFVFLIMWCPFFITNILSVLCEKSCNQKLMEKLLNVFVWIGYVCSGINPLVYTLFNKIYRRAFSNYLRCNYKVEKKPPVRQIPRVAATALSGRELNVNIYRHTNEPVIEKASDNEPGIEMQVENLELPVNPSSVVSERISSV

[6] = target: T2, 5-hydroxytryptamine receptor 1D; test: Compound was evaluated for the stimulation of [35S]GTP-gamma-S, binding in CHO cells expressing the 5-hydroxytryptamine 1D receptor.; format: functional, cell-based
[7] = target: T4, 5-hydroxytryptamine receptor 1A (Mus musculus, UniProt Q64264); test: Compound was evaluated for the affinity at 5-hydroxytryptamine 1A receptor
T4 sequence (Q64264 whole entry): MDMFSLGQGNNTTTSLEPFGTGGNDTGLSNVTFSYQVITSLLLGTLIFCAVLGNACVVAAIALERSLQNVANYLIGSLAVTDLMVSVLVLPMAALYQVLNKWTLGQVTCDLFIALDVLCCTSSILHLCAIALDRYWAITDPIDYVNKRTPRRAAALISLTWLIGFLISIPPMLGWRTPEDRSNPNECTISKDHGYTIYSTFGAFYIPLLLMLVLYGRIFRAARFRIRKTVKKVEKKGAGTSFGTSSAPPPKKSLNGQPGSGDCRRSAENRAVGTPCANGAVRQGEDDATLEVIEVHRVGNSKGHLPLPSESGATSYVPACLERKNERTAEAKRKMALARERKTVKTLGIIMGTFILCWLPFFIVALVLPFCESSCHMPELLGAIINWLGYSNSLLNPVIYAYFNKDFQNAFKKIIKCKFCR

[8] = target: 5-hydroxytryptamine receptor 2A (Homo sapiens, UniProt P28223); test: Compound was evaluated for the affinity at 5-hydroxytryptamine 2A receptor
5-hydroxytryptamine receptor 2A, sequence (P28223 whole entry): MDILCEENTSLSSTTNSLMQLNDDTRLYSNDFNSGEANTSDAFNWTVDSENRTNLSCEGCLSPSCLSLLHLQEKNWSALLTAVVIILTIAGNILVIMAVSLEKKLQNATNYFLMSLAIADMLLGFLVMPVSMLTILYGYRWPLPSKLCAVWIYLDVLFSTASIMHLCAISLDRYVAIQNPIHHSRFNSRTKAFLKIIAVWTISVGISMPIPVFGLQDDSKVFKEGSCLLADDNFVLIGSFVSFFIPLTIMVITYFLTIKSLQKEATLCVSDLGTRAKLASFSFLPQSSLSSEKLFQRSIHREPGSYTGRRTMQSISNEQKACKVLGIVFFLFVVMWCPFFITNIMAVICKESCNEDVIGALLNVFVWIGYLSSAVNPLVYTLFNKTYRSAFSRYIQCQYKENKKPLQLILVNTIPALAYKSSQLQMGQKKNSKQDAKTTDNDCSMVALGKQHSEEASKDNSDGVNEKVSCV

[9] = target: T5, 5-hydroxytryptamine receptor 3A (Homo sapiens, UniProt P46098); test: Compound was evaluated for the affinity at 5-hydroxytryptamine 3 receptor
T5 sequence (P46098 whole entry): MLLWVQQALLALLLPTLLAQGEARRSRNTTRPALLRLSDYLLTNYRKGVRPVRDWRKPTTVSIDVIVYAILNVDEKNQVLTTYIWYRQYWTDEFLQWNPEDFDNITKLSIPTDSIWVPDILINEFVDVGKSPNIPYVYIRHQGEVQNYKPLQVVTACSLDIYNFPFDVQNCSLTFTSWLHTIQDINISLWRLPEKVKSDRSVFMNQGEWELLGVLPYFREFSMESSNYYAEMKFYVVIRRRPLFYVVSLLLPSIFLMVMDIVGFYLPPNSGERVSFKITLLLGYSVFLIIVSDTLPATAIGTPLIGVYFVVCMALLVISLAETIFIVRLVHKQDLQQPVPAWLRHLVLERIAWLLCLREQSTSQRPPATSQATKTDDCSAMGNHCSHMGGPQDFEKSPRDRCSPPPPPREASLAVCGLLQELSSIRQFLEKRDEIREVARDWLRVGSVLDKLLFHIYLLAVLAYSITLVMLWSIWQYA

[10] = target: 5-hydroxytryptamine receptor 1E (Homo sapiens, UniProt P28566); test: Compound was evaluated for the affinity at 5-hydroxytryptamine 1E receptor
5-hydroxytryptamine receptor 1E, sequence (P28566 whole entry): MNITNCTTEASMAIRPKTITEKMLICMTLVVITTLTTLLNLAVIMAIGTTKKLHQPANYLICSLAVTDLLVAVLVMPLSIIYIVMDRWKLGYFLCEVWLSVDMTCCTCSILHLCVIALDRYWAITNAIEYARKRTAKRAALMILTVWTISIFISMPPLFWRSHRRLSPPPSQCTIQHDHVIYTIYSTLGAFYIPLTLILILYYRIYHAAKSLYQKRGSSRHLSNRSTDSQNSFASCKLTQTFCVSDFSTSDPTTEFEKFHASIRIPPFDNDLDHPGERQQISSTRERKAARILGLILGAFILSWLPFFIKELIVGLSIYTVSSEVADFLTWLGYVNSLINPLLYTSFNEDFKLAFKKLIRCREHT

[11] = target: T1, 5-hydroxytryptamine receptor 1B; test: Compound was evaluated for the affinity at 5-hydroxytryptamine 1B receptor
[12] = target: T6, 5-hydroxytryptamine receptor 1F (Homo sapiens, UniProt P30939); test: Compound was evaluated for the affinity at 5-hydroxytryptamine 1F receptor
T6 sequence (P30939 whole entry): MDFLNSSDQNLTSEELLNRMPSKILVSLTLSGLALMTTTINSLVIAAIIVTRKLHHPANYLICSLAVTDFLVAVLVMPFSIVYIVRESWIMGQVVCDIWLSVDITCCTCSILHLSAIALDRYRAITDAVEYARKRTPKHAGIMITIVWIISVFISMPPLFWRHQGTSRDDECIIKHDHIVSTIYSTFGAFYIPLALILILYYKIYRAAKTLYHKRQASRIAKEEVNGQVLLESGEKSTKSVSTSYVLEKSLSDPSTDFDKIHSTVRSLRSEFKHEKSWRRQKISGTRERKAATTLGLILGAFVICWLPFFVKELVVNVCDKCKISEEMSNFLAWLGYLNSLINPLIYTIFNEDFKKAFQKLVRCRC

[13] = target: T2, 5-hydroxytryptamine receptor 1D; test: Compound was evaluated for the affinity at 5-hydroxytryptamine 1D receptor

T1 sequence (P28222 whole entry): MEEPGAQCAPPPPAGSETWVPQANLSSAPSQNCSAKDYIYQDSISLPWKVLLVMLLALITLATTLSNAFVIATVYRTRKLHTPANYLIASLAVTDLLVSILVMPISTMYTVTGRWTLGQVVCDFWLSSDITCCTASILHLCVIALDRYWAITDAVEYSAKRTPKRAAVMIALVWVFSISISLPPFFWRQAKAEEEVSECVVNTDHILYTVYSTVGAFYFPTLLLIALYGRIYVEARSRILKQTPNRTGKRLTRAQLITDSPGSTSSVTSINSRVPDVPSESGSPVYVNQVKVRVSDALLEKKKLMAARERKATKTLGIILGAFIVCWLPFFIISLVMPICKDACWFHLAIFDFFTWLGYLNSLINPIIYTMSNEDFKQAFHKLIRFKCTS

IC50 [1] [nM]	IC50 [2] [nM]	EC50 [3] [nM]	Efficacy [4] [%]	Structure (SMILES)	also measured
251	1.3	1.9	85	CC(=O)Nc1ccc(CCN2CCN(CCCc3c[nH]c4ccc(-n5cnnc5)cc34)CC2)cc1	
170	1.8	1.6	96	CC(=O)Nc1cccc(CCN2CCN(CCCc3c[nH]c4ccc(-n5cnnc5)cc34)CC2)c1	
170	1.4	0.9	65	c1ccc(CCN2CCN(CCCc3c[nH]c4ccc(-n5cnnc5)cc34)CC2)cc1	
120	0.8	1.5	81	Fc1ccc(CCN2CCN(CCCc3c[nH]c4ccc(-n5cnnc5)cc34)CC2)cc1	

The next lines start with the compound.

Structure (SMILES)	IC50 [1] [nM]	IC50 [2] [nM]	EC50 [3] [nM]	Efficacy [4] [%]	also measured
CN1CCN(CCCc2c[nH]c3ccc(-n4cnnc4)cc23)CC1	430	35	53	104	
Fc1cccc(CCN2CCN(CCCc3c[nH]c4ccc(-n5cnnc5)cc34)CC2)c1	75	0.6			IC50 [5]: 9000 nM; EC50 [6]: 1.2 nM; IC50 [7]: 55 nM; IC50 [8]: 370 nM; IC50 [9]: > 10000 nM; IC50 [10]: > 10000 nM; IC50 [11]: 75 nM; IC50 [12]: 3800 nM; IC50 [13]: 0.6 nM
Fc1ccc(CCN2CCN(CCCc3c[nH]c4ccc(-n5cnnc5)cc34)CC2)cc1F	98	1	1.9	86	
c1cc2[nH]cc(CCN3CCCC3)c2cc1-n1cnnc1				120	
c1ccc(CN2CCN(CCCc3c[nH]c4ccc(-n5cnnc5)cc34)CC2)cc1	8.1	0.2	0.1	56	
Fc1cc(F)cc(CCN2CCN(CCCc3c[nH]c4ccc(-n5cnnc5)cc34)CC2)c1	47	0.7	0.6	86	
CN1CCN(CCc2c[nH]c3ccc(-n4cnnc4)cc23)CC1	310	140	80	63	
Fc1ccccc1CCN1CCN(CCCc2c[nH]c3ccc(-n4cnnc4)cc23)CC1	100	0.6	1.5	80	
CNS(=O)(=O)Cc1ccc2[nH]cc(CCN(C)C)c2c1					IC50 [7]: 450 nM; IC50 [10]: 2400 nM
